BindingDB's records for doi:10.1021/jm000271k (Parke-Davis Pharmaceutical Research, 2000)

The molecules below were run against Cyclin-dependent kinase 4/G1/S-specific cyclin-D1 [L188C] (Homo sapiens, UniProt P11802) (assay: CDKs Assay). Details: not given.
Experimental: The enzyme was assayed with substrate GST- retinoblastoma in the presence of 25 uM ATP/[gamma-32P] ATP. IC50 is the inhibitor concentration, which inhibits 50% of enzyme activity that catalyzes the transfer of the terminal phosphate from [gamma-32P] labeled ATP to GST- retinoblastoma. Use of 32P-labeled ATP allows this transfer to be monitored by scintillation counting.

**Q.** With `O=c1ccc2cnc(Nc3ccccc3)nc2n1C1CC2CCC1C2` (configuration not stated) [8-Bicyclo[2.2.1]hept-2-yl-2-phenylamino-8H-pyrido[2,3-d]pyrimidin-7-one] as the molecule, how does the IC50 read?
**A.** 38 nM

**Q.** `O=c1ccc2cnc(Nc3ccccc3)nc2n1CC1CO1` (configuration not stated) [8-Oxiranylmethyl-2-phenylamino-8H-pyrido[2,3-d]pyrimidin-7-one] was tested. Which IC50 did it give?
**A.** 5000 nM

**Q.** For `CCn1c(=O)ccc2cnc(Nc3ccc(N4CCN(C)CC4)cc3)nc21` [8-Ethyl-2-[4-(4-methylpiperazin-1-yl)phenylamino]-8H-pyrido[2,3-d]pyrimidin-7-one], which IC50 is on record?
**A.** 85 nM

**Q.** With `O=c1ccc2cnc(Nc3ccccc3)nc2n1Cc1ccccc1` [8-benzyl-2-(phenylamino)-7H,8H-pyrido[2,3-d]pyrimidin-7-one] as the molecule, how does the IC50 read?
**A.** 940 nM

**Q.** How did the IC50 turn out when `O=c1ccc2cnc(Nc3ccccc3)nc2n1C1CCCC1` [8-cyclopentyl-2-(phenylamino)-7H,8H-pyrido[2,3-d]pyrimidin-7-one] was run?
**A.** 210 nM

**Q.** How did the IC50 turn out when `O=c1ccc2cnc(Nc3ccccc3)nc2n1C1CCCCCC1` [8-cycloheptyl-2-(phenylamino)-7H,8H-pyrido[2,3-d]pyrimidin-7-one] was run?
**A.** 182 nM

**Q.** With `CCCn1c(=O)ccc2cnc(Nc3ccccc3)nc21` [2-(phenylamino)-8-propyl-7H,8H-pyrido[2,3-d]pyrimidin-7-one] as the molecule, how does the IC50 read?
**A.** 553 nM

**Q.** With `CCCCn1c(=O)ccc2cnc(Nc3ccccc3)nc21` [8-Butyl-2-phenylamino-8H-pyrido[2,3-d]pyrimidin-7-one] as the molecule, how does the IC50 read?
**A.** 1490 nM

**Q.** With `O=c1ccc2cnc(Nc3ccccc3)nc2n1C1CCCCC1` [8-Cyclohexyl-2-phenylamino-8H-pyrido[2,3-d]pyrimidin-7-one] as the molecule, how does the IC50 read?
**A.** 47 nM

**Q.** How did the IC50 turn out when `CCn1c(=O)ccc2cnc(Nc3ccc(N4CCOCC4)cc3)nc21` [8-Ethyl-2-(4-(morpholin-4-yl)phenylamino)-8H-pyrido[2,3-d]pyrimidin-7-one] was run?
**A.** 300 nM

**Q.** `Cn1c(=O)ccc2cnc(Nc3ccccc3)nc21` [8-Methyl-2-phenylamino-8H-pyrido[2,3-d]pyrimidin-7-one] was tested. Which IC50 did it give?
**A.** 5480 nM

**Q.** How did the IC50 turn out when `CCN(CC)CCOc1ccc(Nc2ncc3ccc(=O)n(C(C)C)c3n2)cc1` [2-({4-[2-(diethylamino)ethoxy]phenyl}amino)-8-(propan-2-yl)-7H,8H-pyrido[2,3-d]pyrimidin-7-one] was run?
**A.** 45 nM

**Q.** `CC(C)n1c(=O)ccc2cnc(Nc3ccc(N4CCN(C)CC4)cc3)nc21` [8-Isopropyl-2-[4-(4-methylpiperazin-1-yl)phenylamino]-8H-pyrido[2,3-d]pyrimidin-7-one] was tested. Which IC50 did it give?
**A.** 32 nM

Same assay, conditions: pH 7.4; 25 °C

**Q.** `CCn1c(=O)ccc2cnc(Nc3cccc(OC(F)(F)C(F)F)c3)nc21` [8-Ethyl-2-[3-(1,1,2,2-tetrafluoroethoxy)phenylamino]-8H-pyrido[2,3-d]pyrimidin-7-one] was tested. Which IC50 did it give?
**A.** 7830 nM

**Q.** For `CCNc1ncc2ccc(=O)n(CC)c2n1` [8-ethyl-2-(ethylamino)-7H,8H-pyrido[2,3-d]pyrimidin-7-one], which IC50 is on record?
**A.** 12000 nM

**Q.** With `CCn1c(=O)ccc2cnc(Nc3ccc(OC)cc3)nc21` [8-ethyl-2-[(4-methoxyphenyl)amino]-7H,8H-pyrido[2,3-d]pyrimidin-7-one] as the molecule, how does the IC50 read?
**A.** 600 nM

**Q.** With `CCn1c(=O)ccc2cnc(Nc3ccc(F)cc3)nc21` [8-ethyl-2-[(4-fluorophenyl)amino]-7H,8H-pyrido[2,3-d]pyrimidin-7-one] as the molecule, how does the IC50 read?
**A.** 1240 nM

**Q.** With `CCN(CC)CCOc1ccc(Nc2ncc3ccc(=O)n(CC)c3n2)cc1` [2-({4-[2-(diethylamino)ethoxy]phenyl}amino)-8-ethyl-7H,8H-pyrido[2,3-d]pyrimidin-7-one] as the molecule, how does the IC50 read?
**A.** 160 nM

**Q.** Which IC50 does the source give for `CCn1c(=O)ccc2cnc(Nc3cccc(F)c3)nc21` [8-Ethyl-2-(3-fluorophenylamino)-8H-pyrido[2,3-d]pyrimidin-7-one] here?
**A.** 1400 nM

**Q.** How did the IC50 turn out when `CCn1c(=O)ccc2cnc(Nc3ccc(N(C)C)cc3)nc21` [2-{[4-(dimethylamino)phenyl]amino}-8-ethyl-7H,8H-pyrido[2,3-d]pyrimidin-7-one] was run?
**A.** 330 nM

**Q.** How did the IC50 turn out when `CCn1c(=O)ccc2cnc(NC3CCCCC3)nc21` [2-Cyclohexylamino-8-ethyl-8H-pyrido[2,3-d]pyrimidin-7-one] was run?
**A.** 3300 nM

**Q.** `CCn1c(=O)ccc2cnc(NC(C)(C)C)nc21` [2-(tert-butylamino)-8-ethyl-7H,8H-pyrido[2,3-d]pyrimidin-7-one] was tested. Which IC50 did it give?
**A.** 5250 nM
